Data reported in US4966915A, “L-dopa derivatives or their acid addition salts, process for producing same and their use” (priority 1987, dated 1990).

Tests used:
[1] = Acute toxicity, oral administration (mice); type: in vivo, ddY-strain male mice; settings: mortality up to 1 week; for LD50 at 168 h: mouse, in vivo
Text: Each of the test drugs was suspended in a 0.5% sodium carboxymethylcellulose solution containing 0.1% Tween 80 and orally administered to each of ddY-strain male mice (body weight 24 to 31 g, n=5), and a mortality up to 1 week after administration was observed. Toxicity of test compounds (Compounds A and B) was extremely low. The LD50 value was 6 g/kg or more in both cases.

[2] = Acute toxicity, intraperitoneal administration (mice); type: in vivo, ddY-strain male mice; settings: for mortality: up to 1 week, n=5
Text: (2) Intraperitoneal administration
Each of the test drugs was suspended in a sterilized physiological saline and intraperitoneally administered to ddY-strain male mice (body weight 24 to 29 g, n=5), and a mortality up to 1 week after administration was observed.

[3] = cited from earlier work
[4] = Concentrations of L-dopa in the lumen and tissue of the small intestine by an in situ ligating loop method (rats); type: in vivo, male rats; settings: jejunal loop, with 0.4 mg carbidopa
Text: FIG. 8 illustrates change with time of amounts of Compound A (Δ) and L-dopa (o) after injection of Compound A, and amount of L-dopa (.cndot.) after injection of L-dopa in the lumen of the small intestine of rats according to an in situ ligating loop method.
FIG. 9 illustrates change with time of amounts of Compound A (Δ) and L-dopa (o) after injection of Compound A, and amount of L-dopa (.cndot.) after injection of L-dopa in the tissue of the small intestine of rats according to an in situ ligating loop method.
Measuring concentrations of L-dopa in the lumen and tissue of the small intestine by an in situ ligating loop method (rats)
Eight week-old male rats (n=3) were fasted overnight before the test, and then under ether anesthesia, were incised at the abdomen. An acute loop of 8 cm length was ligated in the jejunum. Compound A (1.47 mg) or 1.00 mg of L-dopa as a control drug was suspended in 0.5 ml of 0.5% sodium carboxymethylcellulose together with 0.4 mg of carbidopa, and the suspension was injected into the loop. The loop was returned in the abdominal cabity and the cut portion was then sewn. After a fixed time, the loop was taken out again and the content in the loop was well washed with a ice-cooled physiological saline. […] In the resulting solutions, the concentration of L-dopa was determined as in Test Example 1 and the concentration of Compound A as follows, respectively. […]

[5] = Blood levels of L-dopa after intravenous administration of drugs (rats); type: in vivo, SD-strain male rats
Protocol: FIG. 7 illustrates change with time of a blood level of L-dopa in intravenously administering Compound A (o) and L-dopa (.cndot.) to rats.
Measuring blood levels of L-dopa after intravenous administration of drugs (rats)
Seven to eight week-old SD-strain male rats (n=3) were previously fasted for 18 hours. Twenty milligrams of L-dopa as a control drug or the equimolar amount of Compound A was dissolved in a concentration of 10 mg/ml in a physiolosical saline containing 50% propylene glycol, and the resulting solution was intravenously administered to the rats at a dose of 10 mg eq./kg, calculated as L-dopa. Immediately after administration, or 5, 15, 30, 45, 60, 90, 120, 150, 180 or 240 minutes after administration, 120 μl of blood was collected through a carotid cannula intubated in advance three days before the test using a heparin-treated glass capillary. The blood was treated as in Test Example 1 and then measured for blood levels of L-dopa.

[6] = concluded from conversion to L-dopa

CC1(C(=O)Oc2ccc(C[C@H](N)C(=O)O)cc2O)CC1 [Compound B, 4-O-(1-methylcyclopropanecarbonyl)-L-dopa]
toxicity [1]: extremely low | LD50 at 168 h [1]: ≥ 6000 mg/kg

N[C@@H](Cc1ccc(O)c(O)c1)C(=O)O [L-dopa]
mortality ([2]; 1250 mg/kg): two of five mice were dead | mortality ([2]; 1800 mg/kg): all the test mice were dead | LD50 at 168 h [1]: 3200 mg/kg | blood level of L-dopa ([3]; human, in vivo): rapidly increases and falls | appearance of dyskinesias after administration of L-dopa ([3]; patients, chronic L-dopa therapy): 1 to 2 h | elimination of L-dopa from blood ([3]; patients): rapid elimination

CC(C)(C)C(=O)Oc1ccc(C[C@H](N)C(=O)O)cc1O [Compound A, 4-O-pivaloyl-L-dopa]
amount of L-dopa in the lumen (washing liquid) and tissue (homogenate) of the small intestine ([4]; 1.47 mg Compound A vs 1.00 mg L-dopa): retained for a longer time with less fluctuation than that after administration of L-dopa | concentration of L-dopa in the lumen and tissue of the small intestine [4]: kept low | mortality ([2]; 1800 mg/kg): no case of death was observed | toxicity ([2]; mortality up to 1 week): very low | toxicity [1]: extremely low | LD50 at 168 h [1]: ≥ 6000 mg/kg | hydrolysis to L-dopa in the systemic circulation ([5]; 10 mg eq./kg as L-dopa): rapidly and completely hydrolyzed to L-dopa | conversion ratio to L-dopa ([5]; 10 mg eq./kg as L-dopa, estimated): about 100% | bioavailability [5, 6]: high bioavailability | toxicity [5, 6]: low toxicity
